Values of other authors as cited in publication PMC5603512, “Discovery, Semisynthesis, Antiparasitic and Cytotoxic Evaluation of 14-Membered Resorcylic Acid Lactones and Their Derivatives” (Scientific Reports, 2017).
Values after ≈ are worked out from the molar mass of the structure shown.

Tested on: P. falciparum lines K1
Conditions: cited from earlier work

SMILES | IC50 against P. falciparum line K1 [µg/mL]
COc1cc(O)c2c(c1)[C@H]1O[C@@H]1C[C@H](O)[C@H](O)C(=O)/C=C\C[C@H](C)OC2=O [Hypothemycin] | 2.2 (≈ 5.81 µM)
C[C@H]1C/C=C/[C@@H](O)[C@@H](O)CC/C=C/c2cc(O)cc(O)c2C(=O)O1 [aigialomycin D] | 6.6 (≈ 19.7 µM)
